Laboratory results as given in patent US20230382924A1, “MODULATORS OF CYSTIC FIBROSIS TRANSMEMBRANE CONDUCTANCE REGULATOR” (VERTEX PHARMACEUTICALS INCORPORATED, priority 2020, published 2023).

Legend:
[1] = biological target: T1, CFTR (Homo sapiens, UniProt P13569); assay: Membrane Potential Dye, Enteroid Assay B; assay type: cell-based; settings: for EC50: read-out: Ent. B EC50
Description: Base medium (ADF+++) consisted of Advanced DMEM/Ham's F12, 2 mM Glutamax, 10 mM HEPES, […] penicillin/streptomycin.
Bath 1 Buffer consisted of 1 mM MgCl2, 160 mM NaCl, 4.5 mM KCl, 10 mM HEPES, 10 mM Glucose, 2 mM CaCl2).
Chloride Free Buffer consisted of 1 mM Magnesium Gluconate, 2 mM Calcium Gluconate, 4.5 mM Potassium Gluconate, 160 mM Sodium Gluconate, 10 mM HEPES, 10 mM Glucose.
Bath 1 Dye Solution consisted of Bath 1 Buffer, 0.04% Pluronic F127, 20 μM Methyl Oxonol, 30 μM CaCCinh-A01, 30 μM Chicago Sky Blue.
Chloride Free Dye Solution consisted of Chloride Free Buffer, 0.04% Pluronic F127, 20 μM Methyl Oxonol, 30 μM CaCCinh-A01, 30 μM Chicago Sky Blue.
3. Enteroid Cell Harvesting and Seeding
Cells were recovered in cell recovery solution, collected by centrifugation at 650 rpm for 5 min at 4° C., resuspended in TryPLE and incubated for 5 min at 37° C. Cells were then collected by centrifugation at 650 rpm for 5 min at 4° C. and resuspended in IEMM containing 10 μM ROCK inhibitor (RI).
5. Membrane Potential Dye, Enteroid Assay B
Briefly, cells were washed 5 times in Bath 1 Buffer. Bath 1 Dye Solution was added and the cells were incubated for 25 min at room temperature. Following dye incubation, cells were washed 3 times in Chloride Free Dye Solution. Chloride transport was initiated by addition of Chloride Free Dye Stimulation Solution and the fluorescence signal was read for 15 min.

[2] = biological target: T1, CFTR; assay: Membrane Potential Dye, Enteroid Assay A; assay type: cell-based; settings: for EC50: read-out: Ent. A EC50
Summary of the method: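 Enteroid cells were loaded with methyl oxonol membrane potential dye (plus CaCCinh-A01 and Chicago Sky Blue) for 25 min at room temperature. Chloride transport was started by switching to chloride-free gluconate stimulation solution, with fluorescence read for 15 min. Activity was expressed as % of a triple-combination CFTR modulator control (3 μM, 3 μM, 300 nM acute).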

T1 sequence (P13569 with tags, fused parts or gaps DEL508-508): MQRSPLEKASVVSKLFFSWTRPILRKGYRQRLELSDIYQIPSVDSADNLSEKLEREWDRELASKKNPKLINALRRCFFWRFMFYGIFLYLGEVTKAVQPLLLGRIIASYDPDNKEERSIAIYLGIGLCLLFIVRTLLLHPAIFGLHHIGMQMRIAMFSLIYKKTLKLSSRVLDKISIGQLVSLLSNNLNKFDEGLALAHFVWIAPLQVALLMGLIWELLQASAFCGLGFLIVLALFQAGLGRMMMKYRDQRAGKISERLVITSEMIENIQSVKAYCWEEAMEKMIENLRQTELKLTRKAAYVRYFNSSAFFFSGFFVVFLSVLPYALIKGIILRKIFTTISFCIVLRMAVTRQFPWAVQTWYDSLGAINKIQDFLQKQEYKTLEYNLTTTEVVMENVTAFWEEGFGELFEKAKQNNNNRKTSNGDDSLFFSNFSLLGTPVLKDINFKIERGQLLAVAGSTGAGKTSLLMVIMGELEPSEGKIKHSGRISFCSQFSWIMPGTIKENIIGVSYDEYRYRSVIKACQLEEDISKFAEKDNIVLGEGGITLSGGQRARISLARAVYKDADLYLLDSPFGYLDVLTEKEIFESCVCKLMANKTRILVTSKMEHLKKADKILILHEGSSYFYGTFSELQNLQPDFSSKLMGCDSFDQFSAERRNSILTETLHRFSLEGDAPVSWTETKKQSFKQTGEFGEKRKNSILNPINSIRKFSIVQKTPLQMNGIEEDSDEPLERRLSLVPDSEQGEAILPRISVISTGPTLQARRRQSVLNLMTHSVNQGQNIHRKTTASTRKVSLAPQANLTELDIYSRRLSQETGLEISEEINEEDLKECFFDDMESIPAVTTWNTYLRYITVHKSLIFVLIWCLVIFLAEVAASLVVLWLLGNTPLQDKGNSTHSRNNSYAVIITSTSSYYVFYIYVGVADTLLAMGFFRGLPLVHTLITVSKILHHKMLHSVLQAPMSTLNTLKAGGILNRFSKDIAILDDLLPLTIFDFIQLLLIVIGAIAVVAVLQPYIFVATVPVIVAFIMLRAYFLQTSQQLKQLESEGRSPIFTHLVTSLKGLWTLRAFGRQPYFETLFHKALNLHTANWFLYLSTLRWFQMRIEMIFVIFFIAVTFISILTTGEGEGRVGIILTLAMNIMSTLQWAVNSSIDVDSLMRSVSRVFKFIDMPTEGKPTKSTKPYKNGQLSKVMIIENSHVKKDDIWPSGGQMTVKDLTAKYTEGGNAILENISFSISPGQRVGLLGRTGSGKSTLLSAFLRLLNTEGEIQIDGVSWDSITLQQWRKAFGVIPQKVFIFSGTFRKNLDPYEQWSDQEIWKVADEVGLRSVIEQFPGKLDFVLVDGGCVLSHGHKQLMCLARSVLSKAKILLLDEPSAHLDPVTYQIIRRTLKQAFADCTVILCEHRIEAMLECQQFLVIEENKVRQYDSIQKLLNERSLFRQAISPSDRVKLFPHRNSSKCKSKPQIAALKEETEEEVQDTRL

Row | Ent. B Max Activity ([1]; Table 8) | Ent. A Max Activity ([2]; Table 8) | EC50 ([2]; Table 8) [µM] | EC50 ([1]; Table 8) [µM] | EC50 ([1]; Table 9) [µM] | EC50 ([2]; Table 9) [µM] | Ent. B Max Activity ([1]; Table 9) | Ent. A Max Activity ([2]; Table 9) | SMILES
1 | + (+ is <30%) | + (+ is <30%) | 3 to 30 | – | – | – | – | – | Cc1cccc(C)c1-c1cc2nc(n1)NS(=O)(=O)c1cccc(c1)C(=O)NC[C@H](c1ccc(C(C)(C)C)cc1)O2 (single isomer, unassigned) [Compound 4]
2 | +++ (+++ is >60%) | +++ (+++ is >60%) | < 1 | < 1 | – | – | – | – | Cc1cccc(C)c1-c1cc2nc(n1)NS(=O)(=O)c1cccc(c1)C(=O)NCC(c1ccc(C3(C(F)(F)F)CC3)cc1)O2 (single isomer, unassigned) [Compound 11, 6-(2,6-Dimethylphenyl)-2,2-dioxo-10-[4-[1-(trifluoromethyl)cyclopropyl]phenyl]-9-oxa-2λ^6-thia-3,5,12,19-tetrazatricyclo[12.3.1.14,8]nonadeca-1(18),4(19),5,7,14,16-hexaen-13-one]
3 | – | – | – | – | < 1 | < 1 | +++ (+++ is >60%) | +++ (+++ is >60%) | Cc1cccc(C)c1-c1cc2nc(n1)NS(=O)(=O)c1cccc(c1)C(=O)N[C@H](CC(C)C)[C@@H](c1ccc(C(C)(C)C)cc1)O2 (single isomer, unassigned) [Compound 39]
4 | – | – | – | – | – | < 1 | +++ (+++ is >60%) | +++ (+++ is >60%) | Cc1cccc(C)c1-c1cc2nc(n1)NS(=O)(=O)c1cccc(c1)C(=O)N[C@H](CC(C)C)[C@@H](c1ccc(C(C)(C)C)cc1)O2 (single isomer, unassigned) [Compound 40]
5 | – | – | – | – | < 1 | < 1 | +++ (+++ is >60%) | +++ (+++ is >60%) | Cc1cccc(C)c1-c1cc2nc(n1)NS(=O)(=O)c1cccc(c1)C(=O)N[C@@H](CC13CC4CC(CC(C4)C1)C3)CO2 (single isomer, unassigned) [Compound 110, 11-(1-adamantylmethyl)-6-(2,6-dimethylphenyl)-2,2-dioxo-9-oxa-2λ^6-thia-3,5,12,19-tetrazatricyclo[12.3.1.14,8]nonadeca-1(18),4(19),5,7,14,16-hexaen-13-one]
6 | – | – | – | – | < 1 | < 1 | +++ (+++ is >60%) | +++ (+++ is >60%) | Cc1cccc(C)c1-c1cc2nc(n1)NS(=O)(=O)c1cccc(c1)C(=O)NC[C@H](c1ccc(CCC(C)(C)C)cc1)O2 (stereo in doubt) [Compound 149]
7 | – | – | – | – | < 1 | < 1 | ++ (++ is 30-60%) | ++ (++ is 30-60%) | Cc1cccc(C)c1-c1cc2nc(n1)NS(=O)(=O)c1cccc(c1)C(=O)NC[C@H](c1ccc(/C=C/C(C)(C)C)cc1)O2 (stereo in doubt) [Compound 150]
8 | – | – | – | – | < 1 | < 1 | +++ (+++ is >60%) | +++ (+++ is >60%) | Cc1cccc(C)c1-c1cc2nc(n1)NS(=O)(=O)c1cccc(c1)C(=O)NC[C@H](c1ccc(/C=C/C(C)(C)C)cc1)O2 (stereo in doubt) [Compound 151]
9 | – | – | – | – | 1 to 3 | – | + (+ is <30%) | – | Cc1cccc(C)c1-c1cc2nc(n1)NS(=O)(=O)c1cccc(c1)C(=O)N[C@H](C)[C@H](C)O2 [Compound 483]
10 | – | – | – | – | 3 to 30 | – | ++ (++ is 30-60%) | – | Cc1cccc(C)c1-c1cc2nc(n1)NS(=O)(=O)c1cccc(c1)C(=O)N[C@H](C)[C@H](C)O2 [Compound 484]

Row | SMILES | Ent. B Max Activity ([1]; Table 8) | Ent. A Max Activity ([2]; Table 8) | EC50 ([2]; Table 8) [µM] | EC50 ([1]; Table 8) [µM] | EC50 ([1]; Table 9) [µM] | EC50 ([2]; Table 9) [µM] | Ent. B Max Activity ([1]; Table 9) | Ent. A Max Activity ([2]; Table 9)
11 | Cc1cccc(C)c1-c1cc2nc(n1)NS(=O)(=O)c1cccc(c1)C(=O)NCC(c1ccc([Si](C)(C)C)cc1)O2 (single isomer, unassigned) [Compound 17, 6-(2,6-dimethylphenyl)-2,2-dioxo-10-(4-trimethylsilylphenyl)-9-oxa-2λ^6-thia-3,5,12,19-tetrazatricyclo[12.3.1.14,8]nonadeca-1(18),4(19),5,7,14,16-hexaen-13-one] | – | – | – | – | < 1 | < 1 | – | –
